PubChem BioAssay AID1996
Converted amounts (≈) assume the structure as drawn.

conditions: buffer; pH 7.4; 200.0 µM

| SMILES | solubility kinetic |
| --- | --- |
| CC1CN(C)CCC1OC(=O)c1ccccc1.Cl (stereo not drawn) | > 40.5 µg/mL |
| CCCn1nc(C(=O)NC2CCCC2)c2ccccc2c1=O | > 44.9 µg/mL |
| Cc1c[n+](CC(=O)c2ccccc2)cs1.[Br-] | 44.3 µg/mL |
| Cc1ccc(NC(=O)CN2C(=O)NC(C)(CC(C)C)C2=O)cc1F (stereo not drawn) | > 50.3 µg/mL |
| Cc1cc(Br)ccc1NC(=O)CSCc1c(C)noc1C | 30.1 µg/mL (≈ 81.5 µM) |
| CN(C)/C=C/C(=O)C(F)(F)F | 17.9 µg/mL (≈ 107 µM) |
| O=C(CCN1C(=O)c2cccc3cccc(c23)C1=O)NCC1CCCO1 (stereo not drawn) | > 52.9 µg/mL |
| COc1ccc(C(=O)Nc2cnccn2)cc1[N+](=O)[O-] | 13.9 µg/mL (≈ 50.7 µM) |
| COc1ccc2nc(C)cc(NCCN3CCOCC3)c2c1 | 42.3 µg/mL (≈ 140 µM) |
| CC1(c2ccc([N+](=O)[O-])cc2)NC(=O)NC1=O (stereo not drawn) | > 35.3 µg/mL |
| Cc1cn2c(=O)c(C(=O)N3CCN(c4ccccc4)CC3)cnc2s1 | > 53.2 µg/mL |
| O=C1CN(C(=O)COC(=O)[C@@H]2CCCN2S(=O)(=O)c2ccc(Cl)cc2)c2ccccc2N1 | 59.1 µg/mL (≈ 124 µM) |
| COc1ccc(C2C3(C#N)C(N)=NC(OC)(OC)C23C#N)cc1 (stereo not drawn) | > 46.8 µg/mL |
| O=C(Nc1nccs1)c1ccc(-c2ccccc2[N+](=O)[O-])o1 | 5.6 µg/mL (≈ 17.8 µM) |
| CC(=O)NCCc1nc2ccccc2n1Cc1ccc(Cl)cc1 | > 49.2 µg/mL |
| NNC(=O)c1ccc(N2CCCCCC2)c([N+](=O)[O-])c1 | > 41.7 µg/mL |
| Cc1ccc(N=C2C(=O)Nc3ccccc32)c(C)c1 | 28.8 µg/mL (≈ 115 µM) |
| Cc1ccccc1Nc1ccc2nonc2c1[N+](=O)[O-] | 0.8 µg/mL (≈ 2.96 µM) |
| CCCc1cc(=O)[nH]c(NCCc2ccccc2)n1 | > 38.6 µg/mL |
| O=C(c1ccccc1F)N1C(=O)c2cccc3cccc1c23 | < 0.6 µg/mL |
| Cc1cccc(-c2noc(-c3ccc4c(c3)OCO4)n2)c1 | < 0.3 µg/mL |
| Cc1ccc(S(=O)(=O)NC2CCSC2=O)cc1C (stereo not drawn) | 3.1 µg/mL (≈ 10.9 µM) |
| CC1CCCC(C)N1CC(O)COCc1ccccc1F.Cl (stereo not drawn) | 45.6 µg/mL |
| O=C(NCC1CCCO1)c1cnc(Cl)c(Cl)c1 (stereo not drawn) | > 41.3 µg/mL |

| SMILES | solubility kinetic |
| --- | --- |
| O=S(=O)(c1ccccc1)N1CCc2ccccc2C1 | < 0.6 µg/mL |
| Cl.c1ccc2c(CC3=NCCN3)cccc2c1 | > 37 µg/mL |
| Fc1ccc(CNC(=S)NCc2cccc(Cl)c2)cc1 | 27.2 µg/mL (≈ 88.1 µM) |
| CCCc1cc(C(=O)Nc2ccc(OC)cc2[N+](=O)[O-])cs1 | < 0.3 µg/mL |
| CCc1ccccc1NC(=S)N(CCN(C)C)C(C)c1ccco1 (stereo not drawn) | 50.5 µg/mL (≈ 146 µM) |
| Fc1cccc(CN2CCC(Cc3ccccc3)CC2)c1 | 13.5 µg/mL (≈ 47.6 µM) |
| COc1ccc(CCNC(=O)CN2C(=O)NC(c3ccccc3)(c3ccccc3)C2=O)cc1 | 10 µg/mL (≈ 22.5 µM) |
| Cc1nc(N)sc1C(=O)OCC(C)C | > 32.1 µg/mL |
| Cc1cc(N2CCN(C)CC2)nc(-c2ccccc2O)n1 | > 42.7 µg/mL |
| Cc1ccsc1-c1nc(CN2CCN(C)C(=O)[C@@H]2C)c(C)o1 | 40 µg/mL (≈ 125 µM) |
| CC(=O)Nc1nonc1NC(=O)COc1ccccc1 | > 41.4 µg/mL |
| COc1ccc(CN(C)CC(=O)Nc2cccc(S(=O)(=O)N3CCCC3)c2)cc1F | 44 µg/mL (≈ 101 µM) |
| Cc1ccc(NC(=O)Nc2cc(S(C)(=O)=O)ccc2Cl)cc1 | 1.1 µg/mL (≈ 3.25 µM) |
| COc1ccccc1CCNC(=O)c1ccc(Br)s1 | 29 µg/mL (≈ 85.2 µM) |
| COc1ccc(CN2CCC(Cc3ccccc3)CC2)c(C)c1C | 17 µg/mL (≈ 52.6 µM) |
| O=C(CSCc1ccccc1)NCCc1ccc(F)cc1 | 41.5 µg/mL (≈ 137 µM) |
| CC(C)(C)NC(=O)CSCc1ccc(Br)cc1 | > 47.4 µg/mL |
| O=C(CCc1nc2ccccc2s1)NCc1ccccc1F | > 47.2 µg/mL |
| O=C1Nc2ccccc2/C1=C/c1nc2ccccc2c(=O)n1-c1ccc(O)cc1 | 1.9 µg/mL (≈ 4.98 µM) |
| Cc1ccc(NC(=O)C2OCCc3ccccc32)cc1Cl (stereo not drawn) | < 0.6 µg/mL |
| COc1ccc(CCNc2ccc(S(N)(=O)=O)cn2)cc1 | 42.8 µg/mL (≈ 139 µM) |
| O=c1c2cc(F)ccc2[nH]c(=S)n1Cc1ccc(F)cc1 | 0.9 µg/mL (≈ 2.96 µM) |
| CC(=O)N1CCN(C(=O)c2ccco2)CC1 | > 33.3 µg/mL |
| CSc1ncccc1C(=O)OCC(=O)NCCCc1ccccc1 | 20.6 µg/mL (≈ 59.8 µM) |

| SMILES | solubility kinetic |
| --- | --- |
| Cc1nc([N+](=O)[O-])c(SCC(N)=O)n1Cc1ccccc1 | > 46 µg/mL |
| O=C(Nc1ccc(N2CCOCC2)cc1N1CCOCC1)c1ccccc1 | > 55.1 µg/mL |
| Cc1ccc(-n2c(C(C)C)nc3oc4ccccc4c(=O)c3c2=O)cc1 | 14.7 µg/mL (≈ 42.4 µM) |
| COc1ccc(NC(C)C(=O)Nc2cccc(S(=O)(=O)N3CCOCC3)c2)cc1OC (stereo not drawn) | > 67.4 µg/mL |
| CCN(Cc1ccccc1)C(=O)c1cc2c(OC)c(OC)c(OC)cc2[nH]1 | 31.8 µg/mL (≈ 86.3 µM) |
| O=C(COC(=O)c1cccnc1Cl)NC1CCCc2ccccc21 (stereo not drawn) | > 51.7 µg/mL |
| CCn1c(=O)c(C(=O)NCc2ccc3c(c2)OCO3)c(O)c2ccccc21 | < 0.4 µg/mL |
| N#C/C(=C\Nc1ccccn1)S(=O)(=O)c1ccc(Cl)cc1 | 0.4 µg/mL (≈ 1.25 µM) |
| CC1CN2C(c3ccc([N+](=O)[O-])cc3)=CSC2=N1 (stereo not drawn) | 26.3 µg/mL (≈ 101 µM) |
| CCC(=O)Nc1cccc(-c2nc3ncccc3o2)c1C | > 42.2 µg/mL |
| O=C(O)c1ccccc1NC(=O)N1CCOCC1 | > 37.5 µg/mL |
| Cc1c(NS(=O)(=O)c2cccs2)cccc1-c1nc2cccnc2s1 | 2.4 µg/mL (≈ 6.19 µM) |
| COc1ccc(OC)c(N/C(N)=N/c2nc(C)cc(C)n2)c1 | 40.5 µg/mL (≈ 134 µM) |
| CC1CC=C(c2ccccc2)C(=S)N1 (stereo not drawn) | > 30.5 µg/mL |
| O=C(CSc1nnc2ccccn12)Nc1ccc(N2CCOCC2)cc1 | > 55.4 µg/mL |
| O=C(NC1CCSc2ccccc21)c1ccc(C(F)(F)F)cc1 (stereo not drawn) | < 0.7 µg/mL |
| [O-]/[N+](=C\c1ccco1)c1ccc(Cl)cc1 | 32.5 µg/mL (≈ 147 µM) |
| COc1ccc(OC)c(/C=N/OC(=O)Nc2ccc(Cl)cc2)c1 | 8.3 µg/mL (≈ 24.8 µM) |
| Cc1ccc(C(=O)Nc2ccc3c(c2)OCCO3)c(C)c1 | > 42.5 µg/mL |
| O=C(CNC(=O)c1ccc(=O)[nH]c1)Nc1ccc(F)c(F)c1 | > 46.1 µg/mL |
| O=C1c2cccc3cc([N+](=O)[O-])cc(c23)C(=O)N1CC1CCCO1 (stereo not drawn) | 5.7 µg/mL (≈ 17.5 µM) |
| CCOc1ncccc1C(=O)OCC(=O)c1ccc(C)c(C)c1 | 17 µg/mL (≈ 54.3 µM) |
| CCc1nc2sc3c(Cl)ncnc3c2c2c1CCCC2 | < 0.2 µg/mL |
| CCC(C)(NC(=O)c1ccccn1)C(=O)NC1CCCC1 (stereo not drawn) | > 43.4 µg/mL |

| SMILES | solubility kinetic |
| --- | --- |
| CCOc1cc(S(=O)(=O)NCC2CCCO2)ccc1F (stereo not drawn) | > 45.5 µg/mL |
| COC(=O)c1cc(OC)nc2ccc(Br)cc12 | < 0.6 µg/mL |
| O=C(CNS(=O)(=O)Cc1ccccc1)NCc1ccccc1 | 12.9 µg/mL (≈ 40.5 µM) |
| O=C(CN1C(=O)NC2NC(=O)NC21)N/N=C/c1ccccc1O (stereo not drawn) | > 47.7 µg/mL |
| CS(=O)(=O)c1ccc(C(=O)NCc2ccc(F)cc2)cc1 | 38.5 µg/mL (≈ 125 µM) |
| CCc1ccc(N2CC(C(=O)N3CCCC3)CC2=O)cc1 (stereo not drawn) | 35.2 µg/mL (≈ 123 µM) |
| Cc1cc(C)cc(NC(=S)NCc2ccncc2)c1 | 20.6 µg/mL (≈ 75.9 µM) |
| CNC(=O)NC(=O)C(C)Oc1ccccc1F (stereo not drawn) | 34.9 µg/mL (≈ 145 µM) |
| O=C(/C=C/c1ccco1)N(Cc1ccc(F)cc1)C1CCS(=O)(=O)C1 (stereo not drawn) | > 54.5 µg/mL |
| CCCOc1ccc(C2=CSC3=NCCN23)cc1.Cl | 37.4 µg/mL |
| CCN(CC(=O)NC1CCS(=O)(=O)C1)S(=O)(=O)c1ccc(Br)cc1 (stereo not drawn) | > 65.9 µg/mL |
| C[n+]1c(-c2ccccc2)sc2ccccc21.[O-][Cl+3]([O-])([O-])[O-] | > 48.9 µg/mL |
| O=C1CCC([N+](=O)[O-])C(c2cccc([N+](=O)[O-])c2)N1 (stereo not drawn) | > 39.8 µg/mL |
| O=C(COC(=O)c1ccc([N+](=O)[O-])o1)Nc1ccc(N2CCOCC2)cc1 | 50.6 µg/mL (≈ 135 µM) |
| Cc1cccc(OCC(=O)Nc2ccccc2F)c1 | 13.4 µg/mL (≈ 51.7 µM) |
| NC1=NC(=Nc2cccc(S(N)(=O)=O)c2)c2ccccc21 | > 45.1 µg/mL |
| O=C(C1CCCCC1)N1CCN(c2nc(-c3ccc(F)cc3)cs2)CC1 | 1.5 µg/mL (≈ 4.02 µM) |
| COc1ccc(CNC(C)Cc2cccs2)cc1 (stereo not drawn) | 30.4 µg/mL (≈ 116 µM) |
| O=c1[nH]c(/C=C/c2ccccc2)c([N+](=O)[O-])c(=O)[nH]1 | > 38.9 µg/mL |
| COC(=O)Cc1ccc(NC(=S)Nc2cccc(C)n2)cc1 | 1.6 µg/mL (≈ 5.07 µM) |
| CC(=O)c1cc(C(=O)Nc2ccc3ccccc3c2)c(C)o1 | 34.5 µg/mL (≈ 118 µM) |
| COc1ccc(CNC(=O)C(=O)NC2CC(C)(C)NC(C)(C)C2)cc1 | > 52.1 µg/mL |
| Cc1ccc(O)c(NC(=O)c2onc(C)c2Cl)c1 | 6.2 µg/mL (≈ 23.2 µM) |
| Cc1ccc(-c2csc(NC(=O)CN3CC(C)OC(C)C3)n2)cc1 (stereo not drawn) | 29.5 µg/mL (≈ 85.4 µM) |

| SMILES | solubility kinetic |
| --- | --- |
| CCc1c(C)nc(SC/C=C/c2ccccc2)[nH]c1=O | 1.4 µg/mL (≈ 4.89 µM) |
| CCN(C(=O)COC(=O)c1cc2c(s1)CCCC2)c1c(N)n(Cc2ccccc2)c(=O)[nH]c1=O | 3.3 µg/mL (≈ 6.84 µM) |
| CC(C)c1ccc(NC2CCCN(C(=O)c3cscn3)C2)cc1 (stereo not drawn) | > 49.4 µg/mL |
| O=C1CC(c2ccc(Cl)cc2)CC(O)=C1C=NCCO (stereo not drawn) | > 44.1 µg/mL |
| CC(=O)Oc1ccc2c(=O)c(-c3nc4ccccc4s3)coc2c1 | 1 µg/mL (≈ 2.96 µM) |
| Cc1nc([N+](=O)[O-])c(N2CCOCC2)n1Cc1ccccc1 | 44.7 µg/mL (≈ 148 µM) |
| CCN(CC(=O)NCC(=O)Nc1cccc(C)c1C)Cc1ccccc1 | > 53 µg/mL |
| CN(C)CCCN1C(=O)c2cccc3cccc(c23)C1=O | > 42.4 µg/mL |
| O=C(NC1C2CC3CC(C2)CC1C3)c1ccc2c(c1)OCO2 (stereo not drawn) | 7.9 µg/mL (≈ 26.4 µM) |
| O=C(Nc1ccccc1)OCC1CCCO1 (stereo not drawn) | > 33.2 µg/mL |
| Cc1ccc(C)c(NC(=O)C(c2ccccc2)N2CCN(CC(=O)N3CCOCC3)CC2)c1 (stereo not drawn) | > 67.6 µg/mL |
| CCOc1ccc(NC(=O)c2ccccc2NC(=O)CNC2CCCC(C)C2C)cc1 (stereo not drawn) | 2.2 µg/mL (≈ 5.19 µM) |
| O=C(Cc1ccc([N+](=O)[O-])cc1)NCc1cccnc1 | > 40.7 µg/mL |
| COCc1nc2ccccc2n1Cc1ccccc1C | > 40 µg/mL |
| Cc1ccnc(SCC(=O)c2cccs2)n1 | > 37.5 µg/mL |
| Nc1nc(NCC2CCCO2)nc(Nc2cccc(F)c2)c1[N+](=O)[O-] (stereo not drawn) | < 0.1 µg/mL |
| Cc1ccc(CONS(=O)(=O)c2cc(C)ccc2C)cc1 | 5.2 µg/mL (≈ 17 µM) |
| Cc1cccc(C(=O)OCC(=O)N2CCN(C(=O)c3ccco3)CC2)c1O | 38.8 µg/mL (≈ 104 µM) |
| Cc1cnc(=O)[nH]c1SCc1cccc([N+](=O)[O-])c1 | 5.6 µg/mL (≈ 20.2 µM) |
| CCc1noc(C)c1C(=O)Nc1ccccc1C(C)(C)C | 39 µg/mL (≈ 136 µM) |
| O=C(COc1ccccc1F)Nc1ccc2c(c1)OCCO2 | 14.1 µg/mL (≈ 46.5 µM) |
| CC(C)Cn1c(N)c(C=O)c(=O)[nH]c1=O | > 31.7 µg/mL |
